Measurements published in patent publication US9045445B2, “Glycine transporter-1 inhibitors, methods of making them, and uses thereof” (Albany Molecular Research, Inc., priority 2010, dated 2015).
Counter-ions that a name gives are not always drawn.

biological target: T1, glycine transporter-1 (GlyT-1) (Homo sapiens, UniProt P48067); test: [14C]glycine uptake assay in JAR cells endogenously expressing GlyT-1 (scintillation proximity); assay type: cell-based; settings: JAR cells, [14C]glycine 5 μM, 3 hour incubation; read-out: GlyT-1 IC50
T1 construct: JAR cells (ATCC#HTB-144), which endogenously express GlyT-1; host or cells: JAR human choriocarcinoma cells
T1 sequence (P48067 1-706): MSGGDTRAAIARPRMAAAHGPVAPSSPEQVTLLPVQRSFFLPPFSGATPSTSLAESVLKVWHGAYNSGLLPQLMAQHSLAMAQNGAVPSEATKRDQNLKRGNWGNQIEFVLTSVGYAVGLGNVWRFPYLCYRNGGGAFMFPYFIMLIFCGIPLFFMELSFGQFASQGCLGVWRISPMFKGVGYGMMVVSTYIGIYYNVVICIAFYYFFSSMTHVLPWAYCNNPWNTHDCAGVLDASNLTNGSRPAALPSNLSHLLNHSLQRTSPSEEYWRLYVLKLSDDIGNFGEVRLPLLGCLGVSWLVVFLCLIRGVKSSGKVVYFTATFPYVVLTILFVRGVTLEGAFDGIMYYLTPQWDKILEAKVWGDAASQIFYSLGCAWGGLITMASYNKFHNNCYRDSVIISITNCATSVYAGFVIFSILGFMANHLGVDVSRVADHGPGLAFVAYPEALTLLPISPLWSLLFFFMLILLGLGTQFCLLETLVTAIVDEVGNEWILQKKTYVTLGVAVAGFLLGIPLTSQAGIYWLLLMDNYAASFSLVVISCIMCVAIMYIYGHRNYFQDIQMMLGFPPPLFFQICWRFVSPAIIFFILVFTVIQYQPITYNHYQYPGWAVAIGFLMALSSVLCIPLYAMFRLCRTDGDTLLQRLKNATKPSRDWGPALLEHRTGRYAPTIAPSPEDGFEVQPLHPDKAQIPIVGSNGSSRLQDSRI
Experimental: The inhibitory activity of compounds of the invention against the glycine transporter-1 (GlyT-1) can be determined by the following scintillation proximity assay. The potency of each compound was assessed in inhibiting the uptake of radiolabeled glycine ([^14C]glycine) using the human choriocarcinoma cell line, JAR cells (ATCC#HTB-144), which endogenously express GlyT-1. In brief, 50,000 JARS cells were plated per well of tissue culture treated 96-well Cytostar-T plate (PerkinElmer) in RPMI media supplemented with 10% heat inactivated FBS and allowed to attach overnight at 37° C. and 5% CO2. Compounds were serially diluted 3-fold in DMSO generating a nine (9) data point response curve for each compound. Two replicates were performed per determination. The compounds were then diluted into Uptake Buffer (10 mM Hepes, 120 mM NaCl, 2 mM KCl, 1 mM CaCl2 and 1 mM MgCl2, 5 mM Alanine, pH 7.4) with a final DMSO concentration of 0.75% (v/v). Following the overnight incubation, the media was replaced with Uptake Buffer in the presence or absence of diluted compound and pre-incubated at room temperature for 10 minutes prior to the addition of [^14C]glycine at a final concentration of 5 μM. Following a 3 hour incubation period at 37° C. and 5% CO2, the plates were sealed and placed at room temperature in the dark for 15 minutes prior to quantification of incorporated radioactivity using a MicroBeta Trilux scintillation plate reader (PerkinElmer). Data were fit into a four-parameter model to determine the inhibitor concentration at half-maximal response (IC50). The assay window was established by control wells incubated with [^14C]glycine in the presence or absence of 10 mM non-labeled glycine. A dose response curve for a synthesized reference standard was generated on every plate as a positive control.

SMILES	IC50 [nM]
Cl.[2H]C([2H])([2H])n1cc(S(=O)(=O)N2CCN(C3(CNC(=O)c4ccc(C(F)(F)F)cc4Cl)CCC(F)(F)CC3)CC2)nn1 [compound 240, 2-Chloro-N-((4,4-difluoro-1-(4-(1-(tris-deutero)methyl-1H-1,2,3-triazol-4-ylsulfonyl)piperazin-1-yl)cyclohexyl)methyl)-4-(trifluoromethyl)benzamide Hydrochloride]	49
CCCS(=O)(=O)N1CCN(C2(CNC(=O)c3c(F)cccc3C(F)(F)F)CCC(F)(F)CC2)CC1 [compound 149, N-((4,4-Difluoro-1-(4-(propylsulfonyl)piperazin-1-yl)cyclohexyl)methyl)-2-fluoro-6-(trifluoromethyl)benzamide Hydrochloride]	69
CCCS(=O)(=O)N1CCN(C2(CNC(=O)c3ccc(Cl)cc3F)CCC(F)(F)CC2)CC1 [compound 143, 4-Chloro-N-((4,4-difluoro-l-(4-(propylsulfonyl)piperazin-1-yl)cyclohexyl)methyl)-2-fluorobenzamide Hydrochloride]	137
CCCS(=O)(=O)N1CCN(C2(CNC(=O)c3ccc(C)c(C)c3)CCCCC2)CC1 [compound 35, 3,4-Dimethyl-N-((1-(4-(propylsulfonyl)piperazin-1-yl)cyclohexyl)methyl) benzamide Hydrochloride]	1070
O=C(NCC1(N2CCN(S(=O)(=O)N3CCC(F)(F)C3)CC2)CCC(F)(F)CC1)c1ccc(C(F)(F)F)cc1Cl [compound 272, 2-Chloro-N-((1-(4-(3,3-difluoropyrrolidin-1-ylsulfonyl)piperazin-1-yl)-4,4-difluorocyclohexyl)methyl)-4-(trifluoromethyl) benzamide Hydrochloride]	1100
Cn1ccc(S(=O)(=O)N2CCN(C3(CNC(=O)c4ccc(C(F)(F)F)cc4Cl)CCC(F)(F)CC3)CC2)n1 [compound 283, 2-Chloro-N-((4,4-difluoro-1-(4-(1-methyl-1H-pyrazol-3-ylsulfonyl)piperazin-1-yl)cyclohexyl)methyl)-4-(trifluoromethyl)benzamide Hydrochloride]	2410
CC(NC(=O)c1ccc(C(F)(F)F)cc1Cl)C1(N2CCN(S(=O)(=O)c3cn(C)nn3)CC2)CCCC1 (stereo not drawn) [compound 282, 2-Chloro-N-(1-(1-(4-(1-methyl-1H-1,2,3-triazol-4-ylsulfonyl)piperazin-1-yl)cyclopentyl)ethyl)-4-(trifluoromethyl)benzamide Hydrochloride]	29
O=C(NCC1(N2CCN(S(=O)(=O)c3cccnc3)CC2)CCC(F)(F)CC1)c1c(F)cccc1F [compound 269, N-((4,4-Difluoro-1-(4-(pyridin-3-ylsulfonyl)piperazin-1-yl)cyclohexyl)methyl)-2,6-difluorobenzamide Hydrochloride]	817
Cc1cc(F)c(C(=O)NCC2(N3CCN(S(=O)(=O)c4cn(C)nn4)CC3)CCC(F)(F)CC2)cc1F [compound 239, N-((4,4-Difluoro-1-(4-(1-methyl-1H-1,2,3-triazol-4-ylsulfonyl)piperazin-1-yl)cyclohexyl)methyl)-2,5-difluoro-4-methylbenz-amide Hydrochloride]	20
CCCS(=O)(=O)N1CCN(C2(CNC(=O)c3ccccc3OC(F)F)CCC(F)(F)CC2)CC1 [compound 142, N-((4,4-Difluoro-1-(4-(propylsulfonyl)piperazin-1-yl)cyclohexyl)methyl)-2-(difluoromethoxy) benzamide Hydrochloride]	158
Cn1cnc(S(=O)(=O)N2CCN(C3(CNC(=O)c4ccc(F)cc4C(F)(F)F)CCC(F)(F)CC3)CC2)c1 [compound 169, N-((4,4-Difluoro-1-(4-(1-methyl-1H-imidazol-4-ylsulfonyl)piperazin-1-yl)cyclohexyl)methyl)-4-fluoro-2-(trifluoromethyl)benzamide Hydrochloride]	2
Cn1cnc(S(=O)(=O)N2CCN(C3(CNC(=O)c4c(F)cccc4Cl)CCC(F)(F)CC3)CC2)c1 [compound 180, 2-Chloro-N-((4,4-difluoro-1-(4-(1-methyl-1H-imidazol-4-ylsulfonyl)piperazin-1-yl)cyclohexyl)methyl)-6-fluorobenzamide Hydrochloride]	8
CCCS(=O)(=O)N1CCN(C2(CNC(=O)c3ccc(Cl)cc3)CCCC2)CC1 [compound 73, 4-Chloro-N-((1-(4-(propylsulfonyl)piperazin-1-yl)cyclopentyl)methyl) benzamide Hydrochloride]	1990

Continued by falling IC50, values first:

IC50 [nM]	SMILES
2440	CCCS(=O)(=O)N1CCN(C2(CNC(=O)c3c(N)cccc3Cl)CCC2)CC1 [compound 78, 2-Amino-6-chloro-N-((1-(4-(propylsulfonyl)piperazin-1-yl)cyclobutyl)methyl) benzamide Hydrochloride]
887	CCCS(=O)(=O)N1CCN(C2(CNC(=O)c3ccc(C)cc3)CCCCCC2)CC1 [compound 57, 4-Methyl-N-((1-(4-(propylsulfonyl)piperazin-1-yl)cycloheptyl)methyl) benzamide Hydrochloride]
863	CCCS(=O)(=O)N1CCN(C2(CNC(=O)c3ccc(OC)cc3)CCCCCC2)CC1 [compound 67, 4-Methoxy-N-((1-(4-(propylsulfonyl)piperazin-1-yl)cycloheptyl)methyl) benzamide Hydrochloride]
137	CCS(=O)(=O)N1CCN(C2(CNC(=O)c3c(F)cc(Cl)cc3F)CCC(F)(F)CC2)CC1 [compound 208, 4-Chloro-N-((1-(4-(ethylsulfonyl)piperazin-1-yl)-4,4-difluoro-cyclohexyl)methyl)-2,6-difluorobenzamide Hydrochloride]
72	CCS(=O)(=O)N1CCN(C2(CNC(=O)c3c(F)cc(Cl)cc3Cl)CCC(F)(F)CC2)CC1 [compound 210, 2,4-Dichloro-N-((1-(4-(ethylsulfonyl)piperazin-1-yl)-4,4-difluorocyclohexyl)methyl)-6-fluorobenzamide Hydrochloride]
70	CCCS(=O)(=O)N1CCN(C2(CNC(=O)c3ccccc3C)CCC(F)(F)CC2)CC1 [compound 134, N-((4,4-Difluoro-1-(4-(propylsulfonyl)piperazin-1-yl)cyclohexyl)methyl)-2-methylbenzamide Hydrochloride]
57	Cn1cnc(S(=O)(=O)N2CCN(C3(CNC(=O)c4ccccc4F)CCC(F)(F)CC3)CC2)c1 [compound 175, N-((4,4-Difluoro-1-(4-(1-methyl-1H-imidazol-4-ylsulfonyl)piperazin-1-yl)cyclohexyl)methyl)-2-fluorobenzamide Hydrochloride]
30	CCCS(=O)(=O)N1CCN(C2(CNC(=O)c3c(C)cccc3C)CCC(F)(F)CC2)CC1 [compound 146, N-((4,4-Difluoro-1-(4-(propylsulfonyl)piperazin-1-yl)cyclohexyl)methyl)-2,6-dimethylbenzamide Hydrochloride]
29	CCCS(=O)(=O)N1CCN(C2(CNC(=O)c3c(Cl)cccc3OC(F)(F)F)CCC(F)(F)CC2)CC1 [compound 159, 2-Chloro-N-((4,4-difluoro-1-(4-(propylsulfonyl)piperazin-1-yl)cyclohexyl)methyl)-6-(trifluoromethoxy) benzamide Hydrochloride]
13	Cc1cc(F)ccc1C(=O)NCC1(N2CCN(S(=O)(=O)c3cn(C)cn3)CC2)CCC(F)(F)CC1 [compound 184, N-((4,4-Difluoro-1-(4-(1-methyl-1H-imidazol-4-ylsulfonyl)piperazin-1-yl)cyclohexyl)methyl)-4-fluoro-2-methylbenzamide Hydrochloride]
12	Cn1cc(S(=O)(=O)N2CCN(C3(CNC(=O)c4cc(F)c(Cl)cc4F)CCC(F)(F)CC3)CC2)nn1 [compound 238, 4-Chloro-N-((4,4-difluoro-1-(4-(1-methyl-1H-1,2,3-triazol-4-ylsulfonyl)piperazin-1-yl)cyclohexyl)methyl)-2,5-difluorobenzamide Hydrochloride]
